# Laboratory results from patent US9775895B2, “HIV therapeutics and methods of making and using same” (priority 2012, dated 2017).
# pIC50, pKd: −log10 of the molar value. Non-standard residues stand in square brackets, D forms with d. Residues, ends and D or L forms follow the SMILES beside them. No end group written: not given here. sY = N[C@@H](Cc1ccc(OS(=O)(=O)O)cc1)C(=O)O
# How the values were obtained:
# [1] = system: HIV-1 BaL virions captured by mAb 412d (CCR5-binding site at the base of V3); assay: HIV-1 virion-capture assay with mAb 412d-armed immunomagnetic beads; details: peptides at 50 μM; virions pre-treated with sCD4 5 μg/ml
# Excerpt: (§1) FIGS. 3A-3H are a series of graphs illustrating that a tyrosine-sulfated peptide containing the V2 α-helix binds to gp120, competes with an anti-CCR5-binding site antibody for HIV-1 virion binding, and blocks HIV-1 entry, infection and fusion. (A) Effect of tyrosine-sulfated V2-loop (pV2α-Tys) and CCR5 N-terminus (pCCR5-Tys) mimetic peptides on HIV-1 virion capture by mAb 412d, a sulfated mAb directed to the CCR5-binding site at the base of V3. Unsulfated homologous peptides (pV2α and pCCR5) were tested in parallel as controls. Infectious viral stocks from HIV-1 BaL were pre-treated with the peptides (each at 50 μM) and then incubated with immunomagnetic beads armed with mAb 412d; beads armed with mAb 2G12 (directed to a glycan-dependent epitope on the gp120 outer domain) were used in parallel as a control. Asterisks denote significant differences with the untreated control (p<0.05 by unpaired Student's t test). (B) Dose-dependent effect of peptides pV2α and pV2α-Tys on cell-free infection by HIV-1 BaL in primary CD4^+ T cells. […] (F) Binding of gp120 to immobilized peptide pV2α as assessed by surface plasmon resonance analysis. […] (H) Comparison between the experimentally determined V3 interaction of the tyrosine sulfated CDRH3 region of mAb 412d and the modeled V3 interaction of a tyrosine sulfated peptide derived from the central region of V2. […]
# [2] = system: CD4-activated gp120 (BaL) binding to mAb 412d; assay: Surface plasmon resonance, peptide effect on gp120 binding to immobilized mAb 412d; parameters: species or system HIV-1; details: peptide at 166 μM; gp120 BaL 100 nM with sCD4
# Description: (§2) The interaction of the tyrosine-sulfated V2 peptide with the 412d-binding site was further characterized by surface plasmon resonance (SPR).
# (§3) Surface plasmon resonance. Recombinant gp120 from HIV-1 BaL (at 100 nM) obtained from the NIH AIDS Reagent Program was pre-incubated with or without a 2-fold molar excess of two-domain sCD4 (at 200 nM) and passed over a Biacore CM5 sensor surface in the presence or absence of the indicated peptides (at 166 μM) for 2 min at 25 μl/min in HBS supplemented with 3 mM EDTA and 0.005% Tween-20 followed by a 2 min dissociation phase using a Biacore 3000 biosensor (Biacore, Inc.). Surfaces were regenerated after each cycle by a brief injection of 4.5M MgCl2.
# [3] = system: gp120 (BaL) binding to mAb F105; assay: Surface plasmon resonance, peptide effect on gp120 binding to control mAb F105; parameters: species or system HIV-1; details: peptide at 166 μM; specificity control
# Description: as §2, §3
# HIV-1 BaL = assay type: cell-based; details: acute infection, primary human CD4+ T cells; read-out: half maximal inhibitory concentration (IC50) for infection by HIV-1 BaL
# Excerpt: as §1
# primary CD4+ T cells = assay: Cell viability of primary CD4+ T cells by timed flow cytometry counting; assay type: cell-based, human; details: activated primary CD4+ T cells cultured 7 days
# Description: FIG. 9 is a graph illustrating the effect of V2-derived peptides pV2α and pV2α-Tys on viability of primary CD4^+ T cells. Purified human peripheral blood CD4^+ T cells previously activated in vitro with phytohemagglutinin and IL-2 were treated with each peptide at the indicated concentrations and cultured for 7 days. Cell viability was measured by quantitative counting using timed flow cytometry on a FACSCanto II.
# HIV-1 isolates, infection, entry and cell viability assays. Details about the HIV-1 isolates used in the this study, the infection assay, the entry assay and the cell viability assay have been reported previously (Auerbach et al., Proc Natl Acad Sci USA 109, 9569-9574, 2012).
# [4] = system: gp120 tyrosine sulfation (sulfotransferases); assay: Western blot of tyrosine sulfation in recombinant gp120 produced in CHO cells; assay type: cell-based; details: 30 mM; recombinant gp120 BaL
# HeLa and HEK293 cells = assay: Viability of cell lines by timed flow cytometry counting; assay type: cell-based; details: 30 mM, 72 hrs
# Description: FIGS. 2L-2O illustrate the different efficiency of V2 tyrosine sulfation in recombinant gp120 produced in epithelial cell lines versus virion-associated gp120 produced by primary CD4^+ T cells. (L) Detection of sulfated tyrosines by Western blot in recombinant gp120 produced in CHO cells. (M) Lack of adverse effects of sodium chlorate treatment or TPST2 overexpression on the viability of HeLa and HEK293 cells. The cell lines were treated with 30 mM sodium chlorate (NaClO3) or transfected with a plasmid vector expressing TPST2 and cultured for 72 hrs. Cell viability was measured by quantitative counting using timed flow cytometry on a FACSCanto II and is expressed as percent viable cell recovery. (N) Side-by-side comparison of the extent of tyrosine sulfation detected by Western blot in a reference sulfated mAb (412d), in virion-associated gp120 produced by infected primary human CD4^+ T cells (V-gp120), and in recombinant gp120 produced in HEK293 cells (R-gp120). Identical amounts of mAb 412d and purified gp120 were loaded on the gels. For V-gp120, the protein was immunoprecipitated directly from the infectious viral stocks. The antibodies used for Western blots and the methods used for relative quantification were the same as in (L). […]
# HIV-1 BaL ΔV2 gp160 = assay: Fusion neutralization of HIV-1 BaL ΔV2 with or without NaClO3 pre-treatment; assay type: cell-based; details: 30 mM, 72 hrs pre-treatment
# [5] = biological target: T1, recombinant soluble gp120 (isolate YU2) (Human immunodeficiency virus type 1 group M subtype B, UniProt P35961); assay: Surface plasmon resonance, gp120 binding to immobilized biotinylated peptide; parameters: species or system HIV-1
# T1 construct: recombinant soluble gp120 (isolate YU2)
# Excerpt: Binding of gp120 to immobilized peptide pV2α as assessed by surface plasmon resonance analysis (FIG. 3F). The biotinylated peptide was bound to a neutravidin-coated CM3 sensor chip and recombinant soluble gp120 (isolate YU2) was flown over the chip in the liquid phase. […] Residuals of the fit, which has an RMSD of 0.62 RU shown twice on different scales to facilitate their critical inspection (lower two graphs).
# recombinant soluble CD4 = biological target: T2, recombinant soluble CD4 (Homo sapiens, UniProt P01730); assay: Surface plasmon resonance, soluble CD4 binding to immobilized biotinylated peptide; details: koff-KD distribution model
# T2 construct: recombinant soluble CD4 was flown over the chip
# Description: FIG. 12 is a graph illustrating binding of recombinant soluble CD4 to peptide pV2α. The biotinylated peptide was bound to a neutravidin-coated CM3 sensor chip and recombinant soluble CD4 was flown over the chip in the liquid phase. Experimental binding traces were recorded for sCD4 (at the concentration of […]) binding to 235 RU pV2α at a flow rate of […]; best fit traces (red lines) were derived from modeling with koff−KD distribution. (Lower graphs) Residuals of the fit, which has an rmsd of 0.47 RU shown twice on different scales to facilitate their critical inspection.
# Binding of recombinant soluble CD4 to peptide pV2α was evaluated by surface plasmon resonance (FIG. 12). The biotinylated peptide was bound to a neutravidin-coated sensor chip and recombinant soluble CD4 was flown over the chip in the liquid phase. Experimental binding traces were recorded for sCD4 (at the concentration of […]) binding to 235 RU pV2α at a flow rate of […]; best fit traces (red lines) were derived from modeling with koff−KD distribution.
molecule,measurement,setting,value
"pCCR5-Tys: tyrosine-sulfated peptide derived from the CCR5 N-terminus (DYQVSSPIYDINYYTSE; also: tyrosine-sulfated, sites not given here)",inhibition of virion capture by mAb 412d,[1],specifically inhibited
same,inhibition of binding of surface-bound mAb 412d to CD4-activated gp120,[2],blocked
same,inhibition of gp120 binding to mAb F105,[3],lack of inhibition
CC[C@H](C)[C@H](NC(=O)[C@H](CC(=O)O)NC(=O)[C@H](CC(C)C)NC(=O)[C@H](CCC(=O)O)NC(=O)[C@H](Cc1ccc(OS(=O)(=O)O)cc1)NC(=O)[C@H](Cc1ccccc1)NC(=O)[C@H](CC(C)C)NC(=O)[C@H](C)NC(=O)[C@H](Cc1ccc(OS(=O)(=O)O)cc1)NC(=O)[C@H](CCC(=O)O)NC(=O)[C@H](CCCCN)NC(=O)[C@H](CCC(N)=O)NC(=O)[C@@H](NC(=O)[C@@H](N)CCCCN)C(C)C)C(=O)N[C@H](C(=O)N1CCC[C@H]1C(=O)N[C@H](C(=O)N[C@@H](CC(=O)O)C(=O)O)[C@@H](C)CC)C(C)C [pV2α-Tys] (H-KVQKE[sY]ALF[sY]ELDIVPID-OH),pIC50,HIV-1 BaL,4.82
same,effect on cell viability,primary CD4+ T cells,no negative effects
[Na+].[O-][Cl+2]([O-])[O-] [sodium chlorate],effect on gp120 tyrosine sulfation,[4],totally abrogated gp120 sulfation
same,effect on cell viability,HeLa and HEK293 cells,no negative effects
same,effect on cell viability,HeLa and HEK293 cells; listed as NaClO3,no adverse effects
same,effect on neutralization sensitivity of HIV-1 BaL ΔV2,HIV-1 BaL ΔV2 gp160,nor did it alter
CC[C@H](C)[C@H](NC(=O)[C@H](CC(=O)O)NC(=O)[C@H](CC(C)C)NC(=O)[C@H](CCC(=O)O)NC(=O)[C@H](Cc1ccc(O)cc1)NC(=O)[C@H](Cc1ccccc1)NC(=O)[C@H](CC(C)C)NC(=O)[C@H](C)NC(=O)[C@H](Cc1ccc(O)cc1)NC(=O)[C@H](CCC(=O)O)NC(=O)[C@H](CCCCN)NC(=O)[C@H](CCC(N)=O)NC(=O)[C@@H](NC(=O)[C@@H](N)CCCCN)C(C)C)C(=O)N[C@H](C(=O)N1CCC[C@H]1C(=O)N[C@H](C(=O)N[C@@H](CC(=O)O)C(=O)O)[C@@H](C)CC)C(C)C [pV2α] (H-KVQKEYALFYELDIVPID-OH),pKd,[5],9.05
same,koff,[5]; read-out: koff of gp120 binding to immobilized peptide,6.4e-05 s⁻¹
same,koff,recombinant soluble CD4,0.013 s⁻¹
same,effect on cell viability,primary CD4+ T cells,no negative effects
